Test results: BindingDB's records for doi:10.1021/jm200293r (University of Eastern Finland, 2011)

Target: Diamine acetyltransferase 1 (Mus musculus) (UniProt P48026)
Assay: Competitive inhibition at mouse recombinant SSAT expressed in Escherichia coli strain BL21(DE3)

Diamine acetyltransferase 1 (Mus musculus), sequence (P48026 whole entry, looked up): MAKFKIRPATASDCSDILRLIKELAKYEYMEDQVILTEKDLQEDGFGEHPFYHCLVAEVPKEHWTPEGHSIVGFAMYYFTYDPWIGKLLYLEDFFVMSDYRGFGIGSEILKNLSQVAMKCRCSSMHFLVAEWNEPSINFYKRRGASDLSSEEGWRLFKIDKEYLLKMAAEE

- Ki: 52 µM
Structure (SMILES): CC(CCN)NCCCCN (stereo unspecified)
